Results taken from patent US6153745A, “Relating to mutagenesis of nucleic acids” (Amersham Pharmacia Biotech UK Limited, priority 1995, dated 2000).
Converted amounts (≈) assume the structure as drawn. “Also recorded” adds a separate entry of the source. Where two headings read alike, the source gives them in different places.

Key:
[1] = system: E.coli DNA polymerase I Klenow fragment; settings: 37° C., Purmal et al., 1994, cited from earlier work
[2] = system: thermostable Tth DNA polymerase; settings: Pavlov et al., 1994; cited from earlier work
target DNA sequence MH22 = assay: PCR mutagenesis of target DNA, cloning and sequencing; assay type: biochemical; settings: for Number of point mutations, coding / Number of point mutations, silent / Number of point mutations, total: bases sequenced: dPTP 4093, 8-oxodGTP 5463, dPTP & 8-oxodGTP 3751; for additional (unexpected) mutations found: dPTP: out of 4093 bp, 8-oxodGTP: out of 5463 bp; for linear relation of mutation frequency with number of PCR cycles, up to: equimolar
Protocol: The four normal dNTPs and the analogues were used in equimolar amounts (500 μM);
Data obtained after different number of PCR cycles have been pooled and figures express percentage of total number of mutations;
Numbers at the top of the Table indicate how many times a particular codon is present in the target sequence. Open squares indicate single point mutations within a particular codon. Filled circles indicate two point mutations within a particular codon. […] Squares in shaded areas indicate silent mutations;
Filled in symbols indicate a single nucleotide change within a codon, open symbols denote two nucleotide changes within the same codon. […] Amino acids are grouped in five classes according to their physico-chemical characteristics: glycine, non-polar, polar, positively charged, and negatively charged.
The first number at the 5'-end of each sequence indicates how many PCR cycles were allowed in the presence of the analogue(s). The second number identifies different clones.
In order to investigate the mutations resulting when dPTP or 8oxodGTP was used in DNA synthesis reactions, PCR reactions were set up in which dPTP was added in equimolar concentrations to the four normal dNTPs. The DNA was amplified for a variable number of cycles and, in order to eliminate the incorporated base analogues, an aliquot of the amplified DNA was used as template in a second PCR amplification in which only the four normal dNTPs were used. The PCR product was subsequently cloned, and some of the clones sequenced (in this way, the pattern of mutation was not influenced by the DNA repair mechanisms of the E. coli host).
DNA amplification reactions were carried out for variable number of cycles, as indicated in FIGS. 11A-11C by the number preceding the point in the clone designation.
For mutagenesis experiments, 10 fmoles of template DNA were amplified using 0.5 μl of AmpliTaq polymerase (5 U/μl, Applied Biosystems) in a 20 μl reaction containing the appropriate sense and antisense […] at 0.5 μM, 2 mM MgCl2, 10 mM Tris-HCl pH8.3, 50 mM KCl, 1 g/l gelatine and dATP, dCTP, dGTP, TTP, dPTP and/or 8-oxodGTP, each at 500 μM. After various cycles (92° C. for 1 min, 55° C. for 1.5 min, 75° C. for 5 min), 1 μl of the amplified material was used in a second PCR in which the same conditions as above were used except that no dPTP or 8-oxodGTP were added to the reaction mixture. The product of the second PCR was digested with BstEII and PstI and cloned into M13VHPCRl vector (Jones et al., 1986 Nature 321, 522-525).

Taq Polymerase [3] = biological target: T1, Taq Polymerase (Thermus aquaticus, UniProt P19821); assay: Substrate for Taq polymerase in PCR, replacing normal dNTPs; assay type: biochemical
T1 sequence (P19821 whole entry): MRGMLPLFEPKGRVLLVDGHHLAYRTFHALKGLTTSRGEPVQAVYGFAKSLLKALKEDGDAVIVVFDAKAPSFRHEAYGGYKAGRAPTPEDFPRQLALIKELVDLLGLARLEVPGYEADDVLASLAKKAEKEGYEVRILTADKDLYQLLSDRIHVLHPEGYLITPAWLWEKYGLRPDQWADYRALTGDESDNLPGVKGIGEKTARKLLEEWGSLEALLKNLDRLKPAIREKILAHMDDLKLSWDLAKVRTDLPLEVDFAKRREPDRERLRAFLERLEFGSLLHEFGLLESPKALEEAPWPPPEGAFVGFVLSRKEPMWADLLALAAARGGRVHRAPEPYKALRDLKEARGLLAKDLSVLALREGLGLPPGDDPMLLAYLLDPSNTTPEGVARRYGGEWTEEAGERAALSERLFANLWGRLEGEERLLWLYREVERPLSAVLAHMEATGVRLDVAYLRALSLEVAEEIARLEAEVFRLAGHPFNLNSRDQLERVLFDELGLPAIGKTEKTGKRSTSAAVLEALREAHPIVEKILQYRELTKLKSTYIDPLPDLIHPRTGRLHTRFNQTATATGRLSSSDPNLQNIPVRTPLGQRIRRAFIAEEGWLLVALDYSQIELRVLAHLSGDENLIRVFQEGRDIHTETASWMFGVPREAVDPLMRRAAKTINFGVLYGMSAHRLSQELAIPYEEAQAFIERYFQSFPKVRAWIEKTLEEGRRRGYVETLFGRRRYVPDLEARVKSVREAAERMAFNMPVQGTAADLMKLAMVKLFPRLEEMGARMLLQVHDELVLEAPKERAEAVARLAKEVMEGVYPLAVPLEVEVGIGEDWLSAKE
Protocol: All dNTPs were at 500 μM, except in sample 4 and 7 where dPTP was at 1 mM.
B) The PCR reaction mix included: dATP, dCTP and TTP at 500 μm. Samples 1 to 4 contained dGTP at 50 μM, 25 μM, […] and 6.25 μM respectively, and 8-oxodGTP at 500 μM. Samples 5 to 8 contained the same decreasing amounts of dGTP but no 8-oxodGTP;
Lanes 5 to 8 show the PCR products obtained using the same conditions but in the absence of 8-oxodGTP.

Taq Polymerase [4] = biological target: T1, Taq Polymerase; settings: cited from earlier work
[5] = Singer et al. 1989; cited from earlier work
Taq Polymerase [6] = biological target: T1, Taq Polymerase; assay: Steady state kinetics of insertion opposite template A or G, primed synthetic oligonucleotide templates; assay type: biochemical; settings: for Relative Efficiency / Vmax /Km / Vmax^(rel): 55° C.
Source text: FIGS. 5A-D show (Top): Plots of initial velocities against [dNTP] for the incorporation by Taq polymerase of dPTP opposite A (A), TTP opposite A (B), dPTP opposite G (C), and dCTP opposite G (D).
In order to compare the relative efficiencies of insertion of dPTP opposite template adenine and guanine residues respectively, we adopted the procedure of Boosalis et al. (Boosalis et al., 1987 J. Biol. Chem. 262, 14689-14696) for the determination of steady state kinetics using one of two primed synthetic oligonucleotide templates (FIG. 5). The ^32 P-labelled primer in each case was extended by the incorporation of dGTP at two positions, followed by dPTP (template 1 and 2), TTP (template 1) or dCTP (template 2). Separation of the products by PAGE followed by quantitation of the radioactivity using a PhosphorImager allowed the determination of the initial velocities (Boosalis et al., 1987). Due to the very high extension rate of Taq polymerase, the kinetic parameters were determined at 55° C. The velocities for the insertion of the particular triphosphate opposite template (Vmax) and Km values (μM) for particular insertions were determined from non-linear regression fitting to the Michaelis-Menten equation.

TEM-1 β-lactamase = biological target: T2, TEM-1 β-lactamase (Escherichia coli, UniProt P62593); assay: Cefotaxime resistance / hydrolytic activity of TEM-1 β-lactamase and mutants in E. coli; assay type: cell-based; settings: wild type TEM-1
T2 construct: mutants cloned in pBC KS+
T2 sequence (P62593 24-286 limits assumed): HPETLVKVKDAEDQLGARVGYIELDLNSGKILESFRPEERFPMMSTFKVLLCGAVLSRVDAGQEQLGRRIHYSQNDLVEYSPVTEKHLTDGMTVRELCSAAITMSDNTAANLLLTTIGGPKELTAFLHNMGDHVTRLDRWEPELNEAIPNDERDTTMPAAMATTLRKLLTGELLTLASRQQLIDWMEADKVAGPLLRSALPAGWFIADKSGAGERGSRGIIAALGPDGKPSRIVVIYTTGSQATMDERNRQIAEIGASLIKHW
Protocol: In this experiment we set to improve the hydrolytic activity of the enzyme TEM-1 β-lactamase on the poorly hydrolysed substrate cefotaxime [minimum inhibitory concentration (MIC)=0.02 μg/ml] by repeated rounds of random mutagenesis and selection on increasing concentrations of the antibiotic. The best mutants selected in the first round are subjected to a second round of mutagenesis and selection in the presence of higher concentration of antibiotic. A stepwise improvement of the efficiency of TEM-1 hydrolytic activity is attained by progressively increasing the selective pressure.
The wild type TEM-1 gene from the plasmid pBR322 was used as a template for PCT amplification in the presence of dPTP and 8-oxodGTP in addition to the four normal dNTPs. The pool of mutants generated was cloned in the vector pBC KS^+ and the library of mutants transformed in E. coli by electroporation. […] Selected mutant were analysed by sequencing and the results of the first round of mutagenesis and selection are shown in Table 3A. A different number of cycles of the mutagenic PCT was used to generate four independent libraries of mutants (libA, libB, libC and libD) each characterised by a different frequency of mutation (0.3% for libA, 0.3% for libB, 1.8% for libC and 6.3% for libD), as determined by sequence analysis of unselected clones. […]

**Q.** With Nc1nc2c(nc(O)n2[C@H]2C[C@H](O)[C@@H](COP(=O)(O)OP(=O)(O)OP(=O)(O)O)O2)c(=O)[nH]1 [8-oxodGTP, 2'-Deoxy-8-hydroxyguanosine 5'-triphosphate] as the compound, how does the Km ([1]; read-out: Km for insertion opposite A) read?
**A.** 58 µM

**Q.** What about the Km ([1]; read-out: Km for insertion opposite C) of the same compound?
**A.** 63 µM

**Q.** What about the A→C transversions rate [2] of the same compound?
**A.** approximately 1%

**Q.** What about the “types of mutation produced” value (target DNA sequence MH22) of the same compound?
**A.** two transversions (A→C and T→G)

**Q.** What about the “A→C transversions of total mutations” value (target DNA sequence MH22; 500 μM, pooled cycles) of the same compound?
**A.** 38.8%

**Q.** What about the “T→G transversions of total mutations” value (target DNA sequence MH22; 500 μM, pooled cycles) of the same compound?
**A.** 59%

**Q.** What about the codons replaced (target DNA sequence MH22; 8 mutant clones, equimolar with dNTPs) of the same compound?
**A.** 18 codons

**Q.** What about the “Number of point mutations, coding” value (target DNA sequence MH22) of the same compound?
**A.** 65

**Q.** What about the “Number of point mutations, silent” value (target DNA sequence MH22) of the same compound?
**A.** 16

**Q.** What about the “Number of point mutations, total” value (target DNA sequence MH22) of the same compound?
**A.** 91

**Q.** What about the “additional (unexpected) mutations found” value (target DNA sequence MH22) of the same compound?
**A.** One C→A transversion; also recorded: two A→G transitions and one G→A transition

**Q.** What about the “linear relation of mutation frequency with number of PCR cycles, up to” value (target DNA sequence MH22; 500 μM) of the same compound?
**A.** ≥ 30 cycles

**Q.** And the “incorporation into DNA and its extension” value (Taq Polymerase [3]; normal or limiting dGTP, higher 8-oxodGTP)?
**A.** some incorporation into DNA and its extension could be demonstrated

**Q.** For CON=c1[nH]c(N)nc2c1ncn2[C@H]1C[C@H](O)[C@@H](CO)O1 [K], which “recognition of template DNA containing the analogue by polymerases” value (Taq Polymerase [4]) is on record?
**A.** recognised by polymerases such as Taq polymerase in PCR and Sequenase™ in DNA sequencing

**Q.** Which A→T transversions induced [5] does the source give for CCOc1nc(=O)c(C)cn1[C@H]1C[C@H](O)[C@@H](COP(=O)(O)OP(=O)(O)OP(=O)(O)O)O1 [O^2 -ethylthymidine triphosphate] here?
**A.** induces A→T transversions, albeit at a low frequency

**Q.** With O=C1NC2=NOCCC2=CN1[C@H]1C[C@H](O)[C@@H](CO)O1 [P] as the compound, how does the “recognition of template DNA containing the analogue by polymerases” value (Taq Polymerase [4]) read?
**A.** recognised by polymerases such as Taq polymerase in PCR and Sequenase™ in DNA sequencing

**Q.** Which results are given for Cc1cn([C@H]2C[C@H](O)[C@@H](COP(=O)(O)OP(=O)(O)OP(=O)(O)O)O2)c(=O)[nH]c1=O [TTP]?
**A.** Relative Efficiency (Taq Polymerase [6]; template A): 1.00; Vmax /Km (Taq Polymerase [6]; template A): 167000 M⁻¹; Vmax^(rel) (Taq Polymerase [6]; template A): 1.02 ± 0.11

**Q.** For CO/N=C(\C(=O)N[C@@H]1C(=O)N2C(C(=O)O)=C(COC(C)=O)CS[C@H]12)c1csc(N)n1 [cefotaxime], which “minimum inhibitory concentration (MIC)” value (TEM-1 β-lactamase) is on record?
**A.** 0.02 µg/mL (≈ 0.0439 µM)

**Q.** Which “Relative Efficiency” value (Taq Polymerase [6]; template G) does the source give for Nc1ccn([C@H]2C[C@H](O)[C@@H](COP(=O)(O)OP(=O)(O)OP(=O)(O)O)O2)c(=O)n1 [dCTP] here?
**A.** 1.00

**Q.** And the “Vmax^(rel)” value (Taq Polymerase [6]; template G)?
**A.** 1.01 ± 0.09

**Q.** For O=P(O)(O)OP(=O)(O)OP(=O)(O)OC[C@H]1O[C@@H](n2cnc3c(O)ncnc32)C[C@@H]1O [dITP, deoxyinosine triphosphate], which “substrate quality for Taq polymerase” value (Taq Polymerase [4]; prior art) is on record?
**A.** poor substrate for Taq Polymerase and cannot support DNA synthesis when replacing any of the four normal dNTPs

**Q.** Which “replacement of dATP and dGTP in PCR” value (Taq Polymerase [3]; 350 base pair DNA, 30 cycles) does the source give for CON=c1[nH]c(N)nc2c1ncn2[C@H]1C[C@H](O)[C@@H](COP(=O)(O)OP(=O)(O)OP(=O)(O)O)O1 [dKTP, 2-Amino-9-(2-deoxy-β-D-erythropentofuranosyl)-6-methoxyaminopurine 5'-triphosphate] here?
**A.** could replace dATP and dGTP, but only to a limited extent

**Q.** What does the source list for O=C1NC2=NOCCC2=CN1[C@H]1C[C@H](O)[C@@H](COP(=O)(O)OP(=O)(O)OP(=O)(O)O)O1 [dPTP, 6-(2-deoxy-β-D-erythropentofuranosyl)-3,4-dihydro-8H-pyrimido-[4,5-c][1,2]oxazine-7-one 5'-triphosphate]?
**A.** incorporation efficiency opposite template adenine versus guanine (Taq Polymerase [6]): approximately three times more efficiently opposite template adenine than guanine residues; recognition by Taq polymerase compared with TTP (Taq Polymerase [6]): virtually indistinguishable from TTP in terms of its recognition by Taq polymerase; Relative Efficiency (Taq Polymerase [6]; template A): 0.99; Vmax /Km (Taq Polymerase [6]; template A): 165000 M⁻¹; Vmax^(rel) (Taq Polymerase [6]; template A): 0.86 ± 0.06; Relative Efficiency (Taq Polymerase [6]; template G): 0.11; Vmax /Km (Taq Polymerase [6]; template G): 57000 M⁻¹; Vmax^(rel) (Taq Polymerase [6]; template G): 0.69 ± 0.08; mutagenic efficiency compared (target DNA sequence MH22): much more efficient mutagen than 8-oxodGTP; types of mutation produced (target DNA sequence MH22): four transitions (A→G, T→C, G→A and C→T); A→G mutations of total mutations (target DNA sequence MH22; 500 μM, pooled cycles): 46.6%; C→T mutations of total mutations (target DNA sequence MH22; 500 μM, pooled cycles): 8%; G→A mutations of total mutations (target DNA sequence MH22; 500 μM, pooled cycles): 9.2%; T→C mutations of total mutations (target DNA sequence MH22; 500 μM, pooled cycles): 35.5%; codons mutated to alternative ones, out of 43 codons present (target DNA sequence MH22; 12 mutant clones, equimolar with dNTPs): 40 codons; Number of point mutations, coding (target DNA sequence MH22): 318; Number of point mutations, silent (target DNA sequence MH22): 66; Number of point mutations, total (target DNA sequence MH22): 384; additional (unexpected) mutations found (target DNA sequence MH22): one T→G and two A→T transversions; linear relation of mutation frequency with number of PCR cycles, up to (target DNA sequence MH22; 500 μM): 20 cycles; replacement of TTP in PCR (Taq Polymerase [3]; 350 base pair DNA, 30 cycles): could completely replace TTP and yield amounts of product comparable to those obtained using the four normal triphosphates; replacement of dCTP in PCR (Taq Polymerase [3]; 350 base pair DNA, 30 cycles): could replace dCTP to some extent
